The series in a line: logP determination by HPLC (EEC Directive 79/831 Annex V. A8). Type of series: physicochemical. How it is done: The logP values were determined in accordance with EEC Directive 79/831 Annex V. A8 by HPLC (gradient method, acetonitrile/0.1% aqueous phosphoric acid (s) or gradient method, acetonitrile/0.1% water (n))
As a reminder, the chromatographic logP is lipophilicity estimated from chromatographic retention. Read a low chromatographic logP as a more hydrophilic compound. Compound `CO/N=C(SC)/C(C)=N/OCc1ccccc1/C(=C\C(=O)OC)OC` [Example 1, methyl 3-methoxy-3-[2-(2-methoxyamino-1-methyl-2-methylthio-ethylideneaminooxymethyl)-phenyl]-acrylate] came in with a chromatographic logP of 3.5.
Next, `CO/N=C(/C(C)=N/OCc1ccccc1/C(=C\C(=O)OC)OC)S(C)(=O)=O` [Example 2, methyl 3-[2-(2-methanesulfonyl-2-methoxyimino-1-methyl-ethylideneaminooxymethyl)-phenyl]-3-methoxy-acrylate]: 2.79.
In turn, `CO/N=C(OC)/C(C)=N/OCc1ccccc1/C(=C\C(=O)OC)OC` [Example 3, methyl 3-methoxy-3-[2-(2-methoxy-2-methoxyimino-1-methyl-ethylideneaminooxymethyl)-phenyl]-acrylate] returned a chromatographic logP of 3.05.

These data come from patent US6369111B1, “Substituted oximes” (priority 1998, dated 2002).
